The record followed here is patent US7700782B2, “Compounds 569” (AstraZeneca AB, priority 2007, dated 2010).

Where a name gives a salt, the structure may show the parent alone.

The target in the experiment is T1, Adrenergic β2 (Homo sapiens, UniProt P07550).
T1 construct: Adherent H292 cells were removed from tissue culture flasks; endogenous in cells; host or cells: H292 cells
The experiment can be described thus: Adrenergic β2 mediated cAMP production in H292 cells (AlphaScreen cAMP detection). The class given is cell-based. The following applies: Intrinsic Activity, fraction relative to the maximum activity determined for formoterol. The gist of the method:
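H292 cells, 5000/well, preincubated 10 min with rolipram (final 300 μM, 1.6% DMSO) in HEPES pH 7.4 HBSS, then compound 60 min at room temperature. Lysate cAMP quantified by AlphaScreen against a cAMP standard curve. pEC50 and intrinsic activity (fraction of formoterol maximum) from four-parameter logistic fits.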
Background: cAMP levels reflect the balance of adenylyl cyclase and phosphodiesterase activity.

T1 sequence (P07550 whole entry): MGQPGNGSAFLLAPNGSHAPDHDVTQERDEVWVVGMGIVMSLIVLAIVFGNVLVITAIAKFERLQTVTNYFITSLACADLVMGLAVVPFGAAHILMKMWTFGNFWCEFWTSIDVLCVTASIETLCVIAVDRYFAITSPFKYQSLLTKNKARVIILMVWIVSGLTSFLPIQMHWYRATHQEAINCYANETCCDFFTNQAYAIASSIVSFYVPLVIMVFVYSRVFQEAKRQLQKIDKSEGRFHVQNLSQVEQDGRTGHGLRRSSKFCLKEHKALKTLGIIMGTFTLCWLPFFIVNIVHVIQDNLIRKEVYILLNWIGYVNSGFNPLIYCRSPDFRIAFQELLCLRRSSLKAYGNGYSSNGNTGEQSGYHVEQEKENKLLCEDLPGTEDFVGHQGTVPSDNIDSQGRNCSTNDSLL

`CC(C)(C)CN(CCNCCc1ccc(O)c2[nH]c(=O)sc12)C(=O)CCNC(C)(C)Cc1ccccc1` [Example 38, N^3-(1,1-Dimethyl-2-phenylethyl)-N-(2,2-dimethylpropyl)-N-(2-{[2-(4-hydroxy-2-oxo-2,3-dihydro-1,3-benzothiazol-7-yl)ethyl]amino}ethyl)-β-alaninamide bis-trifluoroacetic acid salt]: the “β2 Int Act” value is 0.42.
`O=C(CCNCCc1cccc(O)c1)N(CCNCCc1ccc(O)c2[nH]c(=O)sc12)C1CCCCC1` [Example 71, N^1-Cyclohexyl-N^1-(2-{[2-(4-hydroxy-2-oxo-2,3-dihydro-1,3-benzothiazol-7-yl)ethyl]amino}ethyl)-N^3-[2-(3-hydroxyphenyl)ethyl]-β-alaninamide bis-trifluoroacetic acid salt]: the “β2 Int Act” value stood at 0.97.
Then `CC(CN(C(=O)CCNCCc1ccccc1)C1CCCCC1)NCCc1ccc(O)c2[nH]c(=O)sc12` (stereo not drawn) [Example 105, N-Cyclohexyl-N-(2-{[2-(4-hydroxy-2-oxo-2,3-dihydro-1,3-benzothiazol-7-yl)ethyl]amino}propyl)-N^3-(2-phenylethyl)-β-alaninamide bis-trifluoroacetic acid salt], with 0.86; and `O=C(CCNCCc1cccs1)N(CCNCCc1ccc(O)c2[nH]c(=O)sc12)C1CCCCCC1` [Example 52, N^1-Cycloheptyl-N^1-(2-{[2-(4-hydroxy-2-oxo-2,3-dihydro-1,3-benzothiazol-7-yl)ethyl]amino}ethyl)-N^3-[2-(2-thienyl)ethyl]-β-alaninamide bis-trifluoroacetic acid salt], with 0.92; and `O=C(CCNCCc1cccc(OC(F)F)c1)N(CCNCCc1ccc(O)c2[nH]c(=O)sc12)C1CCCCCC1` [Example 54, N^1-Cycloheptyl-N^3-{2-[3-(difluoromethoxy)phenyl]ethyl}-N^1-(2-{[2-(4-hydroxy-2-oxo-2,3-dihydro-1,3-benzothiazol-7-yl)ethyl]amino}ethyl)-β-alaninamide bis-trifluoroacetic acid salt], with 0.69.
Then `O=C(CCNCCc1ccc2c(c1)OCCO2)N(CCNCCc1ccc(O)c2[nH]c(=O)sc12)C1CCCCCC1` [Example 88, N^1-Cycloheptyl-N^3-[2-(2,3-dihydro-1,4-benzodioxin-6-yl)ethyl]-N^1-(2-{[2-(4-hydroxy-2-oxo-2,3-dihydro-1,3-benzothiazol-7-yl)ethyl]amino}ethyl)-β-alaninamide bis-trifluoroacetic acid salt], with 0.37; and `O=C(CCNCCc1cc(F)cc(F)c1)N(CCNCCc1ccc(O)c2[nH]c(=O)sc12)C1CCCCC1` [Example 78, N^1-Cyclohexyl-N^3-[2-(3,5-difluorophenyl)ethyl]-N^1-(2-{[2-(4-hydroxy-2-oxo-2,3-dihydro-1,3-benzothiazol-7-yl)ethyl]amino}ethyl)-β-alaninamide bis-trifluoroacetic acid salt], with 0.91; and `O=C(CCNCCc1cccc(Cl)c1)N(CCNCCc1ccc(O)c2[nH]c(=O)sc12)C1CCCCC1` [Example 12, N^3-[2-(3-Chlorophenyl)ethyl]-N-cyclohexyl-N-(2-{[2-(4-hydroxy-2-oxo-2,3-dihydro-1,3-benzothiazol-7-yl)ethyl]amino}ethyl)-β-alaninamide bis-trifluoroacetic acid salt], with 0.87.
For `O=C(CCNCCc1ccc(Cl)c(Cl)c1)N(CCNCCc1ccc(O)c2[nH]c(=O)sc12)C1CCOCC1` [Example 24, N^3-[2-(3,4-Dichlorophenyl)ethyl]-N-(2-{[2-(4-hydroxy-2-oxo-2,3-dihydro-1,3-benzothiazol-7-yl)ethyl]amino}ethyl)-N-(tetrahydro-2H-pyran-4-yl)-β-alaninamide bis-trifluoroacetic acid salt], the “β2 Int Act” value is listed as 0.77.
